# Data: patent publication US20230099344A1, “COMPOUNDS AND METHODS FOR THE TARGETED DEGRADATION OF IRAK-4” (Arvinas Operations, Inc., priority 2021, published 2023)
# Target: T1, IRAK-4 (Homo sapiens, UniProt Q9NWZ3)
# T1 sequence (Q9NWZ3 1-460): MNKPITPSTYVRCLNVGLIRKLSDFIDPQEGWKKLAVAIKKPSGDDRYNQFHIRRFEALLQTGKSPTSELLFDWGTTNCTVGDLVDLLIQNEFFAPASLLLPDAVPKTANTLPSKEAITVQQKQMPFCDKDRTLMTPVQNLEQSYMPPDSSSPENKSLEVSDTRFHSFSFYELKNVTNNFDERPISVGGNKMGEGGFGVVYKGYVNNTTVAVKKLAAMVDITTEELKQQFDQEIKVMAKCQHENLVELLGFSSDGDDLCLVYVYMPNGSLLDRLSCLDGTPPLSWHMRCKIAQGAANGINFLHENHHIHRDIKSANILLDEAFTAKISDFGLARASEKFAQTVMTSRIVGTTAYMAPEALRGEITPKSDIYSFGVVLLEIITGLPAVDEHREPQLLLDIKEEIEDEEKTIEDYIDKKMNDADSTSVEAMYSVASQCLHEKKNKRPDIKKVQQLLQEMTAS
# Assay: IRAK-4 ELISA, PBMC degradation
# Assay type: cell-based
# Set-up: endogenous in cells; host or cells: PBMC
# Conditions: treated overnight
# Protocol: Reagents: Human IRAK-4 Matched Antibody Pair Kit (Abcam ab218182) and ELISA Accessory Pack (Abcam ab210905).
# Cell Treatment and Lysis:
# 1. OCI-Ly10: 200,000 cells are seeded at 1×10^6/ml in 96-well U-bottom plates 200 ul per well, treated with compound the same day. Incubate overnight. 2. PBMC: 800,000 cells are seeded at 2×10^6/ml in 96-well U-bottom deep-well plates, 400 ul per well, treated with compound the same day. Incubate overnight.
# Cell lysate is collected and analyzed by ELISA for IRAK-4 levels.
SMILES,DC50,Dmax,PBMC DC90,PBMC Dmax
COc1cc(N2CC(CN3CCC(n4cc5cc(NC(=O)c6cnn7cccnc67)c(OCC6CC6)cc5n4)CC3)C2)cc2c1C(=O)N(C1CCC(=O)NC1=O)C2=O (stereo not drawn) [Example 131],< 1 nM,≥ 90%,A (A represents a DC90 value <10.0 nM),
CC(C)Oc1cc2c(cc1NC(=O)c1cnn3ccc(N4CCOCC4)nc13)CN(C1CCN(CC3CCN(c4ccc5c(c4)C(=O)N(C4CCC(=O)NC4=O)C5=O)CC3)CC1)C2=O (stereo not drawn) [Example 74],5 to 10 nM,80 to 90%,D (D represents a DC90 value ≥50 nM),
COc1cc(N2CC(F)(CN3CCC(n4cc5cc(NC(=O)c6cnn7cccnc67)c(OC(C)C)cc5n4)CC3)C2)cc2c1C(=O)N(C1CCC(=O)NC1=O)C2=O (stereo not drawn) [Example 217],< 1 nM,80 to 90%,A (A represents a DC90 value <10.0 nM),
CN(C1CN(c2ccc3c(c2)CN(C2CCC(=O)NC2=O)C3=O)C1)[C@H]1CC[C@H](n2cc3cc(NC(=O)c4cnn5cccnc45)c(OCC4CC4)cc3c2)CC1 (stereo partly drawn) [Example 324],< 1 nM,≥ 90%,A (A represents a DC90 value <10.0 nM),
CC(C)Oc1cc2c(cc1NC(=O)c1cnn3cccnc13)CN(C[C@@H](F)C1CN(CC3CCN(c4ccc5c(c4)CN(C4CCC(=O)NC4=O)C5=O)CC3)C1)C2=O (stereo partly drawn) [Example 17],< 1 nM,80 to 90%,A (A represents a DC90 value <10.0 nM),
"O=C1CCC(N2C(=O)c3cccc(N4CC(F)(CN5CCC(n6cc7cc(NC(=O)c8cnn9cccnc89)c(OCC8CC8)cc7n6)CC5)C4)c3C2=O)C(=O)N1 (stereo not drawn) [Example 270, N-(6-(cyclopropylmethoxy)-2-(1-((1-(2-(2,6-dioxopiperidin-3-yl)-1,3-dioxoisoindolin-4-yl)-3-fluoroazetidin-3-yl)methyl)piperidin-4-yl)-2H-indazol-5-yl)pyrazolo[1,5-a]pyrimidine-3-carboxamide]",≥ 10 nM,< 70%,D (D represents a DC90 value ≥50 nM),
CC(C)Oc1cc2c(cc1NC(=O)c1cnn3cccnc13)CN(C1CCN(CCOc3ccc4c(c3)CN(C3CCC(=O)NC3=O)C4=O)CC1)C2=O (stereo not drawn) [Example 3],≥ 10 nM,80 to 90%,3 nM,
CC(C)Oc1cc2c(cc1NC(=O)c1cnn3cccnc13)CN(C[C@@H](F)C1CCN(CC3CCN(c4ccc5c(c4)C(=O)N(C4CCC(=O)NC4=O)C5=O)CC3)CC1)C2=O (stereo partly drawn) [Example 18],< 1 nM,≥ 90%,A (A represents a DC90 value <10.0 nM),
CC(C)Oc1nc2nn(C3CCN(CC4(F)CN(c5ccc6c(c5)C(=O)N(C5CCC(=O)NC5=O)C6=O)C4)CC3)cc2cc1NC(=O)c1cnn2cccnc12 (stereo not drawn) [Example 219],5 to 10 nM,80 to 90%,C (C represents a DC90 value ≥25.0 nM and <50 nM),
O=C1CCC(N2C(=O)c3cc(F)c(N4CC(CN5CCC(n6cc7cc(NC(=O)c8cnn9cccnc89)c(OCC8CC8)cc7n6)CC5)C4)cc3C2=O)C(=O)N1 (stereo not drawn) [Example 221],1 to 5 nM,< 70%,B (B represents a DC90 value ≥10.0 nM and <25.0 nM),
CC(C)Oc1cc2nn(C3CCN(CC4CN(c5ccc6c(c5)C(=O)N(C5CCC(=O)NC5=O)C6=O)C4)CC3)cc2cc1NC(=O)c1cnn2cccnc12 (stereo not drawn) [Example 187],< 1 nM,≥ 90%,A (A represents a DC90 value <10.0 nM),
CC(C)Oc1cc2c(cc1NC(=O)c1cnn3cccnc13)CN(C1CCN(C3(C)CN(c4ccc5c(c4)CN(C4CCC(=O)NC4=O)C5=O)C3)CC1)C2=O (stereo not drawn) [Example 275],< 1 nM,≥ 90%,A (A represents a DC90 value <10.0 nM),
CC(C)Oc1cc2c(cc1NC(=O)c1cnn3cccnc13)CN(C1CCN(C[C@@H]3CCCN(c4ccc5c(c4)C(=O)N(C4CCC(=O)NC4=O)C5=O)C3)CC1)C2=O (stereo partly drawn) [Example 77],1 to 5 nM,≥ 90%,B (B represents a DC90 value ≥10.0 nM and <25.0 nM),
CN1CC(Oc2cc3nn(C4CCN(CC5CCN(c6ccc7c(c6)C(=O)N(C6CCC(=O)NC6=O)C7=O)CC5)CC4)cc3cc2NC(=O)c2cnn3cccnc23)C1 (stereo not drawn) [Example 152],≥ 10 nM,< 70%,D (D represents a DC90 value ≥50 nM),
CC(C)Oc1cc2nn(C3CN(CC4(F)CCN(c5ccc6c(c5)C(=O)N(C5CCC(=O)NC5=O)C6=O)CC4)C3)cc2cc1NC(=O)c1cnn2cccnc12 (stereo not drawn) [Example 194],1 to 5 nM,≥ 90%,C (C represents a DC90 value ≥25.0 nM and <50 nM),
C[C@@H](Oc1cc2nn(C3CCN(CC4(F)CN(c5ccc6c(c5)C(=O)N(C5CCC(=O)NC5=O)C6=O)C4)CC3)cc2cc1NC(=O)c1cnn2cccnc12)C1CC1 (stereo partly drawn) [Example 223],1 to 5 nM,70 to 80%,C (C represents a DC90 value ≥25.0 nM and <50 nM),
CCN(C1CN(c2cccc3c2n(C)c(=O)n3C2CCC(=O)NC2=O)C1)[C@H]1CC[C@H](n2cc3cc(NC(=O)c4cnn5cccnc45)c(OC(C)C)cc3n2)CC1 (stereo partly drawn) [Example 388],< 1 nM,≥ 90%,A (A represents a DC90 value <10.0 nM),
O=C1CCC(N2C(=O)c3ccc(N4CC(F)(CN5CCC(n6cc7cc(NC(=O)c8cnn9ccc(N%10CCOCC%10)nc89)c(C(F)F)cc7n6)CC5)C4)cc3C2=O)C(=O)N1 (stereo not drawn) [Example 409],1 to 5 nM,≥ 90%,B (B represents a DC90 value ≥10.0 nM and <25.0 nM),
COc1cc(N2CC(N(C)[C@H]3CC[C@H](N4Cc5cc(NC(=O)c6cnn7cccnc67)c(OC(C)C)cc5C4=O)CC3)C2)cc2c1C(=O)N(C1CCC(=O)NC1=O)C2=O (stereo partly drawn) [Example 321],1 to 5 nM,≥ 90%,A (A represents a DC90 value <10.0 nM),
O=C1CCC(N2C(=O)c3ccc(N4CC(F)(CN5CCC(n6cc7cc(NC(=O)c8cnn9cccnc89)c(OC8CC8)cc7n6)CC5)C4)cc3C2=O)C(=O)N1 (stereo not drawn) [Example 200],1 to 5 nM,≥ 90%,A (A represents a DC90 value <10.0 nM),
CC(C)Oc1cc2c(cc1NC(=O)c1cnn3cccnc13)CN([C@H]1CC[C@H](N3CC4(CN(c5ccc6c(c5)C(=O)N(C5CCC(=O)NC5=O)C6=O)C4)C3)CC1)C2=O (stereo partly drawn) [Example 68],< 1 nM,,A (A represents a DC90 value <10.0 nM),A (A represents a Dmax value ≥90)
CC(C)Oc1cc2c(cc1NC(=O)c1cnn3cccnc13)CN(C1CCN(CC(F)(F)C3CN(c4ccc5c(c4)C(=O)N(C4CCC(=O)NC4=O)C5=O)C3)CC1)C2=O (stereo not drawn) [Example 40],5 to 10 nM,80 to 90%,D (D represents a DC90 value ≥50 nM),
O=C1CCC(N2C(=O)c3ccc(N4CC(F)(CN5CCC(n6cc7cc(NC(=O)c8cnn9cccnc89)c(C8CC8)cc7n6)CC5)C4)cc3C2=O)C(=O)N1 (stereo not drawn) [Example 199],1 to 5 nM,≥ 90%,B (B represents a DC90 value ≥10.0 nM and <25.0 nM),
O=C1CCC(NC(=O)c2ccc(N3CC(F)(CN4CCC(N5Cc6cc(NC(=O)c7cnn8cccnc78)c(OCC7CC7)cc6C5=O)CC4)C3)cc2F)C(=O)N1 (stereo not drawn) [Example 298],≥ 10 nM,≥ 90%,D (D represents a DC90 value ≥50 nM),
CC(C)Oc1cc2c(cc1NC(=O)c1cnn3cccnc13)CN(C1CCN(CC3(C)CN(c4ccc5c(c4)C(=O)N(C4CCC(=O)NC4=O)C5=O)C3)CC1)C2=O (stereo not drawn) [Example 72],< 1 nM,80 to 90%,A (A represents a DC90 value <10.0 nM),
CN(C1CCC(N2Cc3cc(NC(=O)c4cnn5cccnc45)c(OCC4CC4)cc3C2=O)CC1)C1CN(c2ccc3c(c2)C(=O)N(C2CCC(=O)NC2=O)C3=O)C1 (stereo not drawn) [Example 345],< 1 nM,≥ 90%,A (A represents a DC90 value <10.0 nM),
CC(C)Oc1cc2nn(C3CCN(CCN4CCN(c5ccc6c(c5)C(=O)N(C5CCC(=O)NC5=O)C6=O)CC4)CC3)cc2cc1NC(=O)c1cnn2cccnc12 (stereo not drawn) [Example 137],< 1 nM,≥ 90%,A (A represents a DC90 value <10.0 nM),
CC(C)Oc1cc2c(cc1NC(=O)c1cnn3cccnc13)CN(C1CCN(C[C@H]3CCCN(c4ccc5c(c4)C(=O)N(C4CCC(=O)NC4=O)C5=O)C3)CC1)C2=O (stereo partly drawn) [Example 76],1 to 5 nM,≥ 90%,B (B represents a DC90 value ≥10.0 nM and <25.0 nM),
CC(C)Oc1cc2nn(C3CCN(CC4(F)CN(c5ccc(C(=O)NC6CCC(=O)NC6=O)c(F)c5)C4)CC3)cc2cc1NC(=O)c1cnn2cccnc12 (stereo not drawn) [Example 293],1 to 5 nM,≥ 90%,B (B represents a DC90 value ≥10.0 nM and <25.0 nM),
COc1cc(N2CC(F)(CN3CCC(n4cc5cc(NC(=O)c6cnn7cccnc67)c(OCC6CC6)cc5n4)CC3)C2)cc2c1C(=O)N(C1CCC(=O)NC1=O)C2 (stereo not drawn) [Example 242],1 to 5 nM,80 to 90%,A (A represents a DC90 value <10.0 nM),
